{
  "source": "patent US9526785B2",
  "about": "“Pharmaceuticals for oral delivery” (Enteris BioPharma, Inc., priority 2013, dated 2016)",
  "assay": "Tigecycline plasma PK and % F after intraduodenal (ID) injection in anesthetized rats",
  "format": "in vivo, Sprague-Dawley Rats",
  "settings": "female, Sprague-Dawley, rat, plasma",
  "experimental": "Animals weighed approximately 250 g at the time of testing. Rats were fasted overnight (with water available), prior to dosing.\nIntravenous (IV) doses were administered as a bolus injection into the left carotid […] at a dose volume of 1.6 mL/kg. Intraduodenal doses were administered as bolus injections into the duodenum at a dose volume of 1.2 mL/kg.\nAn additional study was conducted exploring the effect of formulation pH at constant CA and LLC concentrations (RA867).\nFemale rats were maintained in groups of 3 per polycarbonate (or equivalent) shoebox cage with fresh wood chip bedding at 20-22° C. under a 12 hour on/off light:dark cycle. […] After the rats went limp they were injected intraperitoneally (IP) with 0.1 mL ketamine/xylazine. The anesthetic state was maintained by IP injection of ketamine/xylazine on an as needed basis. Animal weights were determined post-anesthesia induction.\nAn indwelling catheter for blood sampling was inserted into the right carotid artery by exposing the trachea with Mayo scissors, clamping the bottom of the […] and tying off the top with surgical suture. The area between was nicked with small sharp scissors and Intramedic polyethylene tubing was inserted into the nicked area. The artery with the tubing was sealed with suture to prevent leakage. A 23-gauge Intramedic Luer Stub Adapter was inserted into the cannula and attached to a 3 way valve which was connected to a 3 cc syringe filled with 0.9% normal saline and a 1 cc syringe filled with 5 U/mL sodium heparin for blood sampling.\nAn intraduodenal injection was utilized to mimic oral delivery of an enterically coated capsule or tablet formulation. […] Mayo scissors were used to expose the duodenum and the site of administration was identified by measuring 5 cm from the junction of the stomach and the duodenum towards the jejunum. The measured site was identified by inserting a small piece of surgical suture underneath the site for injection. After the formulation was injected, the abdominal cavity was closed with surgical clips.\nBlood samples were collected in tubes containing 20 μL 180 mM EDTA. The tubes were maintained on ice and then centrifuged at approximately 3000 rpm at 4° C. for 5 minutes. Plasma was harvested immediately after centrifugation of the samples and stored at −20° C. pending analysis.\nMinocycline (VWR international) was used as an internal standard. Sample processing/clean-up of plasma samples was carried out offline by protein precipitation with acidified acetonitrile.\nThe HPLC system consisted of Shimadzu SIL-HTc HPLC system equipped with dual Shimadzu LC-10ADvp isopumps, a Shimadzu CTO-10ASvp column temperature controller and a Shimadzu SPD-10Avp variable wavelength detector. […] Mobile phase A consisted of 23 mM phosphate buffer pH 2.5 with 6 mM 1-octanesulfonic acid, while mobile phase B consisting of pure acetonitrile. […] The mobile phase flow rate was 1.2 mL/min. Detection was performed using the SPD-10Avp variable wavelength detector set at 350 nm, with a sensitivity of 0.001 aufs.\nThe samples were then centrifuged under refrigeration at 13 k rpm for 30 minutes. The supernatant was taken and the liquid was removed to dryness in a turbovap. The samples were then reconstituted in 55 μL 0.1M phosphate buffer, pH 3.8. Samples were maintained at 10° C. while on the autoinjector during sequence. The injection volume was 50 μL. The unknown concentration in rat plasma samples was determined by interpolation of the peak area ratios of analyte:internal standard versus the ratio of their nominal concentrations into the regression line obtained from calibration standards spiked in pooled rat plasma. No regression weighting was used for the calculations. […] The calibration curve covered the range of 0.05 μg/mL to 5.0 μg/mL.",
  "key": {"[1]": {"settings": "[…], RA869, ID, 400 mM CA/26 mM LLC"}, "[2]": {"settings": "other: intraduodenal bolus injection, 4.8 mg/kg, ID, PBS, 4.8 mg/kg (RA851)"}, "[3]": {"settings": "other: intraduodenal bolus injection, 4.8 mg/kg, pH 3.5, ID, 100 mM CA (pH 3.5), 26 mM LLC, 4.8 mg/kg (RA851)"}, "[4]": {"settings": "other: intraduodenal bolus injection, 4.8 mg/kg, pH 3.5, ID, 400 mM CA (pH 3.5), 26 mM LLC, 4.8 mg/kg (RA851), parent Tigecycline peak only"}, "[5]": {"settings": "other: intraduodenal bolus injection, 9 mg/kg, ID, PBS, 9.0 mg/kg (RA853), animal RA853-4 only"}, "[6]": {"settings": "other: intraduodenal bolus injection, 9 mg/kg, pH 3.5, ID, 100 mM CA (pH 3.5), 26 mM LLC, 9.0 mg/kg (RA853)"}, "[7]": {"settings": "other: intraduodenal bolus injection, 9 mg/kg, pH 3.5, ID, 400 mM CA (pH 3.5), 26 mM LLC, 9.0 mg/kg (RA853), parent Tigecycline peak only"}},
  "note": "Read-outs that look alike come from different tables or passages of the source.",
  "data": [
    {"smiles": "CN(C)c1cc(NC(=O)CNC(C)(C)C)c(O)c2c1C[C@H]1C[C@H]3[C@H](N(C)C)C(O)=C(C(N)=O)C(=O)[C@@]3(O)C(O)=C1C2=O", "note": "[Tigecycline]", "values": [
      {"measurement": "Cmax", "setting": "[…], RA869, ID, 26 mM LLC only, […], read-out: Cmax, mean", "value": 105, "unit": "ng/mL"},
      {"measurement": "AUC(0-t)", "setting": "[1]", "value": 222, "unit": "ng·h/mL"},
      {"measurement": "Tmax", "setting": "[1]", "value": 15, "unit": "min"},
      {"measurement": "bioavailability", "setting": "[…], RA869, ID, 400 mM CA/26 mM LLC, […], read-out: % F, mean", "value": 21.6, "unit": "%"},
      {"measurement": "Cmax", "setting": "[…], RA869, ID, 400 mM CA/26 mM LLC, […], read-out: Cmax, mean", "value": 246, "unit": "ng/mL"},
      {"measurement": "concentration at 0 min", "setting": "[2]", "value": 0, "unit": "ng/mL"},
      {"measurement": "concentration at 10 min", "setting": "[2]", "value": 31, "unit": "ng/mL"},
      {"measurement": "concentration at 20 min", "setting": "[2]", "value": 31, "unit": "ng/mL"},
      {"measurement": "concentration at 30 min", "setting": "[2]", "value": 33, "unit": "ng/mL"},
      {"measurement": "concentration at 60 min", "setting": "[2]", "value": 0, "unit": "ng/mL"},
      {"measurement": "concentration at 120 min", "setting": "[2]", "value": 53, "unit": "ng/mL"},
      {"measurement": "concentration at 240 min", "setting": "[2]", "value": 66, "unit": "ng/mL"},
      {"measurement": "concentration at 0 min", "setting": "[3]", "value": 0, "unit": "ng/mL"},
      {"measurement": "concentration at 10 min", "setting": "[3]", "value": 710, "unit": "ng/mL"},
      {"measurement": "concentration at 20 min", "setting": "[3]", "value": 672, "unit": "ng/mL"},
      {"measurement": "concentration at 30 min", "setting": "[3]", "value": 601, "unit": "ng/mL"},
      {"measurement": "concentration at 60 min", "setting": "[3]", "value": 398, "unit": "ng/mL"},
      {"measurement": "concentration at 120 min", "setting": "[3]", "value": 306, "unit": "ng/mL"},
      {"measurement": "concentration at 0 min", "setting": "[4]", "value": 0, "unit": "ng/mL"},
      {"measurement": "concentration at 10 min", "setting": "[4]", "value": 920, "unit": "ng/mL"},
      {"measurement": "concentration at 20 min", "setting": "[4]", "value": 788, "unit": "ng/mL"},
      {"measurement": "concentration at 30 min", "setting": "[4]", "value": 618, "unit": "ng/mL"},
      {"measurement": "concentration at 60 min", "setting": "[4]", "value": 455, "unit": "ng/mL"},
      {"measurement": "concentration at 120 min", "setting": "[4]", "value": 345, "unit": "ng/mL"},
      {"measurement": "concentration at 240 min", "setting": "[4]", "value": 386, "unit": "ng/mL"},
      {"measurement": "concentration at 0 min", "setting": "[5]", "value": 0, "unit": "ng/mL"},
      {"measurement": "concentration at 10 min", "setting": "[5]", "value": 0, "unit": "ng/mL"},
      {"measurement": "concentration at 20 min", "setting": "[5]", "value": 0, "unit": "ng/mL"},
      {"measurement": "concentration at 30 min", "setting": "[5]", "value": 391, "unit": "ng/mL"},
      {"measurement": "concentration at 60 min", "setting": "[5]", "value": 440, "unit": "ng/mL"},
      {"measurement": "concentration at 120 min", "setting": "[5]", "value": 129, "unit": "ng/mL"},
      {"measurement": "concentration at 0 min", "setting": "[6]", "value": 0, "unit": "ng/mL"},
      {"measurement": "concentration at 10 min", "setting": "[6]", "value": 1770, "unit": "ng/mL"},
      {"measurement": "concentration at 20 min", "setting": "[6]", "value": 1980, "unit": "ng/mL"},
      {"measurement": "concentration at 30 min", "setting": "[6]", "value": 1350, "unit": "ng/mL"},
      {"measurement": "concentration at 60 min", "setting": "[6]", "value": 608, "unit": "ng/mL"},
      {"measurement": "concentration at 120 min", "setting": "[6]", "value": 273, "unit": "ng/mL"},
      {"measurement": "concentration at 0 min", "setting": "[7]", "value": 0, "unit": "ng/mL"},
      {"measurement": "concentration at 10 min", "setting": "[7]", "value": 2490, "unit": "ng/mL"},
      {"measurement": "concentration at 20 min", "setting": "[7]", "value": 2160, "unit": "ng/mL"},
      {"measurement": "concentration at 30 min", "setting": "[7]", "value": 1760, "unit": "ng/mL"},
      {"measurement": "concentration at 60 min", "setting": "[7]", "value": 1060, "unit": "ng/mL"},
      {"measurement": "concentration at 120 min", "setting": "[7]", "value": 683, "unit": "ng/mL"},
      {"measurement": "bioavailability", "setting": "other: intraduodenal bolus injection, pH 3.5, ID, 400 mM CA pH 3.5 and 26 mM LLC (RA851, RA853), read-out: absolute % F", "value": "~22", "unit": "%"},
      {"measurement": "bioavailability", "setting": "other: intraduodenal injection, 4.8 mg/kg, ID, PBS, 4.8 mg/kg (RA851), relative to 0.64 mg/kg IV, read-out: % F, Mean", "value": 1.6, "unit": "%"},
      {"measurement": "bioavailability", "setting": "other: intraduodenal injection, 4.8 mg/kg, pH 3.5, ID, 100 mM CA (pH 3.5), 26 mM LLC, 4.8 mg/kg (RA851), relative to 0.64 mg/kg IV, read-out: % F, Mean", "value": 10.9, "unit": "%"},
      {"measurement": "bioavailability", "setting": "other: intraduodenal injection, 9 mg/kg, ID, PBS, 9.0 mg/kg (RA853), without animal RA853-6, relative to 12 mg/kg IV, read-out: % F, Mean", "value": 2.8, "unit": "%"},
      {"measurement": "Cmax", "setting": "other: intraduodenal injection, 9 mg/kg, ID, PBS, 9.0 mg/kg (RA853), suspected injection site leakage, read-out: Cmax, one animal not included in the mean", "value": 1110, "unit": "ng/mL"},
      {"measurement": "bioavailability", "setting": "other: intraduodenal injection, 9 mg/kg, pH 3.5, ID, 100 mM CA (pH 3.5), 26 mM LLC, 9.0 mg/kg (RA853), relative to 12 mg/kg IV, read-out: % F, Mean", "value": 11.4, "unit": "%"},
      {"measurement": "bioavailability", "setting": "other: intraduodenal injection, 9 mg/kg, pH 3.5, ID, 400 mM CA (pH 3.5), 26 mM LLC, 9.0 mg/kg (RA853), parent Tigecycline peak only, relative to 12 mg/kg IV, read-out: % F, Mean", "value": 21.8, "unit": "%"},
      {"measurement": "bioavailability", "setting": "other: intraduodenal injection, […], RA869, ID, 26 mM LLC only, […], read-out: % F, mean", "value": 9, "unit": "%"},
      {"measurement": "bioavailability", "setting": "other: intraduodenal injection, […], RA869, ID, 400 mM CA/26 mM LLC, […], read-out: % F, mean", "value": "~22", "unit": "%"},
      {"measurement": "bioavailability", "setting": "other: intraduodenal injection, pH 3.5, ID, 100 mM CA pH 3.5 and 26 mM LLC (RA851, RA853), read-out: absolute % F", "value": "~11", "unit": "%"}
    ]}
  ]
}
